Reference: article PMC12291851, “Hydrogen Sulfide (H2S)-Donating Formyl Peptide Receptor 2 (FPR2) Agonists: Design, Synthesis, and Biological Evaluation in Primary Mouse Microglia Culture” (Antioxidants, 2025)

How the values were obtained:
FPR2 [1] = target: T1, FPR2 (Homo sapiens, UniProt P25090); assay: Ca2+ mobilization (agonist activity) in FPR2-HL60 cells; details: for Ca2+ Mobilization HL60-FPR2 Efficacy: response to 5 nM WKYMVM = 100%
T1 sequence (P25090 1-351): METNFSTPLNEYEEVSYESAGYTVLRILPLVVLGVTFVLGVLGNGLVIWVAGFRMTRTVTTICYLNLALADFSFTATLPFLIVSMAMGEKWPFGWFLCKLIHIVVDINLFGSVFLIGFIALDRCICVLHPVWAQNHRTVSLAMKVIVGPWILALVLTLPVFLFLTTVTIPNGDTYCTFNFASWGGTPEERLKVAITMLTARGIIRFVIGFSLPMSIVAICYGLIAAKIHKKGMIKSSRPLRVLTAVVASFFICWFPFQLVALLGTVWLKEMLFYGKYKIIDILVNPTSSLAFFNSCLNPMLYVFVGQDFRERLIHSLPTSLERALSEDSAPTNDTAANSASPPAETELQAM

IL-6 = IL-6 ELISA in medium of microglial cultures; assay type: cell-based, mouse; details: 1 μM pretreatment 1 h, then LPS 0.1 μg/mL 24 h
Protocol: (§1) Primary microglial cell cultures were derived from the cortices of 1–2-day-old mouse pups (1pup/1 brain/1 flask). After decapitation, the brains were extracted and immediately placed in cold Hanks’ Balanced Salt Solution (HBSS, Gibco, New York, NY, USA) on ice. The brains were washed at least three times with 7 mL of HBSS and then transferred to 10 mL of fresh culture media consisting of Dulbecco’s Modified Eagle Medium (DMEM) with GlutaMax and high glucose (4.5 g/L) (Gibco, New York, NY, USA) on ice. The tissue was minced and incubated in HBSS containing glucose, bovine serum albumin (BSA; Sigma-Aldrich, St. Louis, MO, USA), and HEPES (Gibco, New York, NY, USA) with 0.025% trypsin at 37 °C for 20 min. […] The purity of microglial cell cultures was assessed as we have shown previously. […]
(§2) To assess the effect of test compounds on IL-18, IL-6, and IL-10 levels, the medium of microglial cell cultures was collected 24 h after LPS treatment. The protein levels of the cytokines IL-18 (Mouse interleukin 18 ELISA kit), IL-6 (Mouse interleukin 6 ELISA kit), and IL-10 (Mouse interleukin 10 ELISA kit; all obtained from FineTest, Wuhan, China) were measured using commercially available enzyme-linked immunosorbent assay kits according to the manufacturer’s instructions. […]

FPR2 [2] = target: T1, FPR2; assay: FPR2 desensitization: inhibition of WKYMVM-induced Ca2+ mobilization in FPR2-HL60 cells; assay type: cell-based; parameters: expressed in transfected cells; host or cells: HL-60 cells; details: 10 min preincubation, then 5 nM WKYMVM
From the text: Finally, we assessed the ability of compounds to induce receptor desensitization at FPR2 by measuring the inhibition of Ca^2+ mobilization induced by subsequent treatment with a standard FPR2 agonist (IC50, Table 1) because FPR2 undergoes homologous desensitization after stimulation with agonists, resulting in functional antagonism (IC50, Table 1). […] We also evaluated the effects of the thiourea and thioamide derivatives on Ca^2+ mobilization in FPR1-HL60-transfected cells after stimulation with the FPR1 agonist (IC50, Table 1).

[3] = Cell-free MTT-based H2S release assay; assay type: physicochemical; details: 24 h incubation in MEM with 10% DMSO
Protocol: Solutions at different concentrations of each compound in 100 µL of serum-free MEM/10% DMSO with 0.5 mg/mL 3-(4,5-dimethylthiazol-2yl)-2,5-diphenyltetrazolium bromide (MTT) were incubated for 5 h or 24 h in a humidified incubator at 37 °C in 5% CO2 atmosphere. The experimental design comprised blank wells containing only medium and MTT, and a H2S calibration curve obtained by incubating nine solutions at decreasing concentrations (100 µM to 0.01 µM) of NaHS in medium and MTT. At the end of incubation time, the supernatant was removed, the […] crystals were dissolved in 100 µL DMSO/EtOH (1:1 v/v), and absorbance values were read using a Victor 3 plate reader (PerkinElmer, Shelton, CT, USA) at 570 nm. H2S values are expressed as mean ± S.E.M. of the results of three independent experiments conducted in triplicate, and were plotted using GraphPad Prism 7.
To decipher such results and considering the redox properties of H2S, we questioned if H2S released by our compounds in the culture media could interfere with the conversion of MTT (3-[4,5-dimethylthiazol-2-yl]-2,5-diphenyl tetrazolium bromide) to formazan, which is usually related to cell viability. Thus, we ran cell-free experiments in which MTT was used as the substrate to capture the reductive action of H2S. We found, in agreement with Gerő et al., that some of our thioureas and thioamides reduced MTT to formazan after 24 h incubation in MEM with 10% DMSO.

IL-10 = IL-10 ELISA in medium of microglial cultures; assay type: cell-based, mouse; details: 1 μM pretreatment 1 h, then LPS 0.1 μg/mL 24 h
Protocol: as §1, §2

Structure (SMILES)	fold less potent at FPR2 than the corresponding urea/amide (FPR2 [1]; ratio of FPR2 EC50 vs 3b, 3c or 4b)	Ca2+ Mobilization HL60-FPR2 Efficacy (FPR2 [1])	LPS-induced increase of IL-6 level (IL-6)	Ca2+ Mobilization HL60-FPR2 IC50 (FPR2 desensitization) (FPR2 [2])	IC50 (FPR2 [2])	absorbance signal (MTT reduction to formazan) indicative of H2S release [3]	LPS-induced increase of IL-10 level (IL-10)
N#Cc1ccc(C[C@H](NC(=O)Nc2ccc(F)cc2)C(=S)N2CCc3ccccc32)cc1 [7b, (S)-1-[3-(4-Cyanophenyl)-1-(indolin-1-yl)-1-thioxopropan-2-yl]-3-(4-fluorophenyl)urea]	23 fold	170%	able to counterbalance the LPS-induced increase	submicromolar concentration	60 ± 20 nM	robust absorbance signal	able to counterbalance the LPS-induced increase
N#Cc1ccc(C[C@H](NC(=O)Nc2ccc(Br)cc2)C(=S)N2CCc3ccccc32)cc1 [8b, (S)-1-(4-Bromophenyl)-3-[3-(4-cyanophenyl)-1-(indolin-1-yl)-1-thioxopropan-2-yl]urea]		150%	able to counterbalance the LPS-induced increase	submicromolar concentration	7 ± 3 nM	below the assay’s detection limit	able to counterbalance the LPS-induced increase
